Experimental data from publication PMC9447987, “Long-term memory CD8^+ T cells specific for SARS-CoV-2 in individuals who received the BNT162b2 mRNA vaccine” (Nature Communications, 2022).
Read-outs that look alike come from different tables or passages of the source.

Tests used:
[1] = test system: HLA-A*24:02-restricted CD8+ T cells; format: cell-based, human; conditions: for number of S-QI9-specific T cell populations that effectively recognized the peptide / number of individuals whose S-QI9-specific T cells moderately recognized the peptide / number of individuals whose S-QI9-specific T cells uniformly recognized variant peptide and S-QI9 / number of individuals whose S-QI9-specific bulk T cells exhibited no or very weak recognition: 13 HLA-A*24:02+ individuals, C1R-A2402 pre-pulsed with 1 nM peptide
HLA-A*24:02 = HLA-A*24:02 (Homo sapiens, UniProt P04439, D101N/D140Y/D185E/E176V/E190D/F33S/G103R/G107R/I119L/I121M/I306V/K335N/L105A/L180Q/L300P/N151K/N90K/Q86E/Q94H/R106L/R138H/R89G/T104I/T345S/V100E/W191G/Y123F); assay: HLA stabilization assay using RMA-S-A2402 cells; format: binding; conditions: for MFI, HLA-A2402 (APC), representative staining: RMA-S-A2402 cells; for affinity for HLA-A*24:02, times weaker than that of S-QI9: approximately, peptide 0.03 to 10 μM
[2] = test system: HLA-A*24:02-peptide complexes; assay: Peptide–MHC Complex Dissociation Assay using RMA-S-A2402 cells; format: binding, human; conditions: for % Mean Fluoresence: Fig.7d; for stability of the HLA-A*24:02-peptide complex (in words): RMA-S-A2402 cells, 10 μM peptide, 0, 1, 2 and 4 h
[3] = Suppl. Fig. 3d (for Fig. 7c), peptide(-) 11.3, 26 °C (Maximum) 24.0
[4] = post-incubation 0 hour, replicate 1
[5] = post-incubation 0 hour, replicate 2
[6] = post-incubation 0 hour, replicate 3
[7] = post-incubation 1 hour, replicate 1
[8] = post-incubation 1 hour, replicate 2
[9] = post-incubation 1 hour, replicate 3
[10] = post-incubation 2 hour, replicate 1
[11] = post-incubation 2 hour, replicate 2
[12] = post-incubation 2 hour, replicate 3
[13] = post-incubation 4 hour, replicate 1
[14] = post-incubation 4 hour, replicate 2
[15] = post-incubation 4 hour, replicate 3

Sequence: MYVKWPWYV [HKU1]
- sensitivity of S-QI9-specific T cells for the peptide compared with the SARS-CoV-2 S-QI9 epitope (in words) [1]: higher sensitivity
- number of S-QI9-specific T cell populations that effectively recognized the peptide [1]: 13
- MFI, HLA-A2402 (APC), representative staining (HLA-A*24:02; [3]): 49.8
- affinity for HLA-A*24:02, times weaker than that of S-QI9 (HLA-A*24:02): 10–30 times
- % Mean Fluoresence [2, 4]: 100%
- % Mean Fluoresence [2, 5]: 100%
- % Mean Fluoresence [2, 6]: 100%
- % Mean Fluoresence [2, 7]: 69.2%
- % Mean Fluoresence [2, 8]: 72.5%
- % Mean Fluoresence [2, 9]: 68.4%
- % Mean Fluoresence [2, 10]: 38.6%
- % Mean Fluoresence [2, 11]: 43%
- % Mean Fluoresence [2, 12]: 37.4%
- % Mean Fluoresence [2, 13]: 12.8%
- % Mean Fluoresence [2, 14]: 14%
- % Mean Fluoresence [2, 15]: 10%
- stability of the HLA-A*24:02-peptide complex (in words) [2]: weaker than that of the HLA-A*24:02-S-QI9 peptide complex

Sequence: YYVKWPWYV [OC43]
- sensitivity of S-QI9-specific T cells for the peptide compared with the SARS-CoV-2 S-QI9 epitope (in words) [1]: higher sensitivity
- number of S-QI9-specific T cell populations that effectively recognized the peptide [1]: 13
- MFI, HLA-A2402 (APC), representative staining (HLA-A*24:02; [3]): 45.9
- affinity for HLA-A*24:02, times weaker than that of S-QI9 (HLA-A*24:02): 10–30 times
- % Mean Fluoresence [2, 4]: 100%
- % Mean Fluoresence [2, 5]: 100%
- % Mean Fluoresence [2, 6]: 100%
- % Mean Fluoresence [2, 7]: 70.4%
- % Mean Fluoresence [2, 8]: 82.2%
- % Mean Fluoresence [2, 9]: 77.7%
- % Mean Fluoresence [2, 10]: 54.3%
- % Mean Fluoresence [2, 11]: 54.5%
- % Mean Fluoresence [2, 12]: 58.1%
- % Mean Fluoresence [2, 13]: 20.6%
- % Mean Fluoresence [2, 14]: 25.6%
- % Mean Fluoresence [2, 15]: 22%
- stability of the HLA-A*24:02-peptide complex (in words) [2]: identical to that of the HLA-A*24:02-S-QI9 peptide complex

Sequence: NYIKWPWWV [NL63]
- sensitivity of S-QI9-specific T cells for the peptide compared with the SARS-CoV-2 S-QI9 epitope (in words) [1]: much lower sensitivity
- number of individuals whose S-QI9-specific T cells moderately recognized the peptide [1]: 7
- number of individuals whose S-QI9-specific T cells uniformly recognized variant peptide and S-QI9 [1]: 2
- number of individuals whose S-QI9-specific bulk T cells exhibited no or very weak recognition [1]: 4
- affinity for HLA-A*24:02 (in words) (HLA-A*24:02): substantially weaker
- MFI, HLA-A2402 (APC), representative staining (HLA-A*24:02; [3]): 16.2
- % Mean Fluoresence [2, 4]: 100%
- % Mean Fluoresence [2, 5]: 100%
- % Mean Fluoresence [2, 6]: 100%
- % Mean Fluoresence [2, 7]: 18.2%
- % Mean Fluoresence [2, 8]: 44%
- % Mean Fluoresence [2, 9]: 7.4%
- % Mean Fluoresence [2, 10]: -22.6%
- % Mean Fluoresence [2, 11]: 35.4%
- % Mean Fluoresence [2, 12]: -0.6%
- % Mean Fluoresence [2, 13]: 18.3%
- % Mean Fluoresence [2, 14]: -7.8%
- % Mean Fluoresence [2, 15]: 2%
- stability of the HLA-A*24:02-peptide complex (in words) [2]: substantially weaker

Sequence: TYIKWPWWV [229E]
- sensitivity of S-QI9-specific T cells for the peptide compared with the SARS-CoV-2 S-QI9 epitope (in words) [1]: much lower sensitivity
- number of individuals whose S-QI9-specific T cells moderately recognized the peptide [1]: 7
- number of individuals whose S-QI9-specific T cells uniformly recognized variant peptide and S-QI9 [1]: 2
- number of individuals whose S-QI9-specific bulk T cells exhibited no or very weak recognition [1]: 4
- MFI, HLA-A2402 (APC), representative staining (HLA-A*24:02; [3]): 41.6
- % Mean Fluoresence [2, 4]: 100%
- % Mean Fluoresence [2, 5]: 100%
- % Mean Fluoresence [2, 6]: 100%
- % Mean Fluoresence [2, 7]: 44.6%
- % Mean Fluoresence [2, 8]: 48.7%
- % Mean Fluoresence [2, 9]: 47.1%
- % Mean Fluoresence [2, 10]: 19.2%
- % Mean Fluoresence [2, 11]: 17%
- % Mean Fluoresence [2, 12]: 16.5%
- % Mean Fluoresence [2, 13]: -1.1%
- % Mean Fluoresence [2, 14]: -0.2%
- % Mean Fluoresence [2, 15]: -1.9%
- stability of the HLA-A*24:02-peptide complex (in words) [2]: weaker than that of the HLA-A*24:02-HKU1 or HLA-A*24:02-OC43 peptide complexes

Sequence: GYLQPRTFLL [S-GL10]
- IFNg-producing cells among CD8 T cells (%) ([1]; convalescent donor C2, 45.290 weeks since PCR-confirmed diagnosis, […], peptide-pulsed C1R-A2402): 0.450%
- IFNg-producing cells among CD8 T cells (%) ([1]; convalescent donor C3, 2.430 weeks since PCR-confirmed diagnosis, […], peptide-pulsed C1R-A2402): 0.140%
- IFNg-producing cells among CD8 T cells (%) ([1]; convalescent donor C4, 35.000 weeks since PCR-confirmed diagnosis, […], peptide-pulsed C1R-A2402): 1.440%
- IFNg-producing cells among CD8 T cells (%) ([1]; convalescent donor C5, 41.430 weeks since PCR-confirmed diagnosis, […], peptide-pulsed C1R-A2402): 0.000%
- IFNg-producing cells among CD8 T cells (%) ([1]; convalescent donor C6, 20.000 weeks since PCR-confirmed diagnosis, […], peptide-pulsed C1R-A2402): 0.260%
- IFNg-producing cells among CD8 T cells (%) ([1]; convalescent donor C7, 21.710 weeks since PCR-confirmed diagnosis, […], peptide-pulsed C1R-A2402): 0.000%
- IFNg-producing cells among CD8 T cells (%) ([1]; convalescent donor C8, 47.860 weeks since PCR-confirmed diagnosis, […], peptide-pulsed C1R-A2402): 0.120%
- IFNg-producing cells among CD8 T cells (%) ([1]; convalescent donor C9, 21.860 weeks since PCR-confirmed diagnosis, […], peptide-pulsed C1R-A2402): 0.130%
- IFNg-producing cells among CD8 T cells (%) ([1]; convalescent donor C10, 24.570 weeks since PCR-confirmed diagnosis, […], peptide-pulsed C1R-A2402): 0.000%
- IFNg-producing cells among CD8 T cells (%) ([1]; convalescent donor C11, 24.290 weeks since PCR-confirmed diagnosis, […], peptide-pulsed C1R-A2402): 0.000%
- Freq of responder (%) ([1]; of 17 vaccinated HLA-A*24:02+ individuals (Fig. 4b)): 5.9%
- Resp: number of responders (individuals with epitope-specific CD8+ T cells) ([1]; of 17 vaccinated HLA-A*24:02+ individuals, […], 1 μM peptide): one
- IFNg-producing cells among CD8 T cells (%) ([1]; vaccinated donor V1, 19.000 weeks since 2nd dose, […], C1R-A2402 pre-pulsed with 1 μM peptide): 0%
- IFNg-producing cells among CD8 T cells (%) ([1]; vaccinated donor V2, 9.570 weeks since 2nd dose, […], C1R-A2402 pre-pulsed with 1 μM peptide): 0%
- IFNg-producing cells among CD8 T cells (%) ([1]; vaccinated donor V3, 8.860 weeks since 2nd dose, […], C1R-A2402 pre-pulsed with 1 μM peptide): 0.487%
- IFNg-producing cells among CD8 T cells (%) ([1]; vaccinated donor V4, 10.430 weeks since 2nd dose, […], C1R-A2402 pre-pulsed with 1 μM peptide): 0.245%
- IFNg-producing cells among CD8 T cells (%) ([1]; vaccinated donor V5, 10.570 weeks since 2nd dose, […], C1R-A2402 pre-pulsed with 1 μM peptide): 0.041%
- IFNg-producing cells among CD8 T cells (%) ([1]; vaccinated donor V6, 9.570 weeks since 2nd dose, […], C1R-A2402 pre-pulsed with 1 μM peptide): 0%
- IFNg-producing cells among CD8 T cells (%) ([1]; vaccinated donor V7, 10.140 weeks since 2nd dose, […], C1R-A2402 pre-pulsed with 1 μM peptide): 0%
- IFNg-producing cells among CD8 T cells (%) ([1]; vaccinated donor V8, 9.860 weeks since 2nd dose, […], C1R-A2402 pre-pulsed with 1 μM peptide): 0.018%
- IFNg-producing cells among CD8 T cells (%) ([1]; vaccinated donor V9, 20.570 weeks since 2nd dose, […], C1R-A2402 pre-pulsed with 1 μM peptide): 0.481%
- IFNg-producing cells among CD8 T cells (%) ([1]; vaccinated donor V10, 2.000 weeks since 2nd dose, […], C1R-A2402 pre-pulsed with 1 μM peptide): 0.057%
- IFNg-producing cells among CD8 T cells (%) ([1]; vaccinated donor V11, 1.430 weeks since 2nd dose, […], C1R-A2402 pre-pulsed with 1 μM peptide): 0.244%
- IFNg-producing cells among CD8 T cells (%) ([1]; vaccinated donor V12, 1.000 weeks since 2nd dose, […], C1R-A2402 pre-pulsed with 1 μM peptide): 1.194%
- IFNg-producing cells among CD8 T cells (%) ([1]; vaccinated donor V13, 9.000 weeks since 2nd dose, […], C1R-A2402 pre-pulsed with 1 μM peptide): 0%
- IFNg-producing cells among CD8 T cells (%) ([1]; vaccinated donor V14, 2.000 weeks since 2nd dose, […], C1R-A2402 pre-pulsed with 1 μM peptide): 0.774%
- IFNg-producing cells among CD8 T cells (%) ([1]; vaccinated donor V15, 6.860 weeks since 2nd dose, […], C1R-A2402 pre-pulsed with 1 μM peptide): 0.234%
- IFNg-producing cells among CD8 T cells (%) ([1]; vaccinated donor V16, 8.860 weeks since 2nd dose, […], C1R-A2402 pre-pulsed with 1 μM peptide): 0%
- IFNg-producing cells among CD8 T cells (%) ([1]; vaccinated donor V17, 4.140 weeks since 2nd dose, […], C1R-A2402 pre-pulsed with 1 μM peptide): 0%
- MFI, HLA-A2402 (APC), representative staining (HLA-A*24:02; Suppl. Fig. 3b (for Fig. 4a, 4b), peptide(-) 14.8, 26 °C (Maximum) 32.7): 15.2
